“Also recorded” adds a separate entry of the source. Non-standard residues stand in square brackets, D forms with d. Residues, ends and D or L forms follow the SMILES beside them.
Experiments:
Assay type in all cases: in vitro ADME
[1] = Comparison of RD2 metabolite profiles across species: human liver microsomes
Description: (§1) The preparation of the media was performed as described before in Elfgen et al.[24]. Preparation of simulated gastric and intestinal fluid (SGF & SIF) was done according to the European Pharmacopoeia 7.0. Plasma samples were obtained from human blood of a volunteer donor. Pooled human liver microsomes were purchased from Sekisui XenoTech (Kansas City, USA; H1000, Lot: 0710494 and 1210270; H1500, Lot: 1210079), from Sigma-Aldrich (St. Louis, USA; M0692, Lot: SLBL1433V; M0567, Lot: SLBR2706V and SLBN7300V) and from Gibco, Thermo Fisher Scientific (Waltham, USA; HMMCPL, Lot: PL050; HMMCPM, Lot: PL039). Pooled Sprague Dawley rat liver microsomes were purchased from Sigma-Aldrich (St. Louis, USA; M9066, Lot: SLBN0707V) and from Gibco, Thermo Fisher Scientific (Waltham, USA; RTMCPL, Lot: RT053). Pooled cynomolgus monkey liver microsomes were purchased from Gibco, Thermo Fisher Scientific (Waltham, USA; MKMCPL, Lot: MK062) and from Sekisui XenoTech (Kansas City, USA; P2000, Lot: 1210334). The liver microsomes were diluted in an NADPH regenerating system (NRS).
(§2) For the stability tests, 150 µM RD2 or L-RD2 was incubated in SGF, SIF, human plasma and human liver microsomes in triplicate at 37 °C with slight shaking for different time periods. To prevent microbial contaminations in long-term plasma incubations, 0.1% sodium azide was added to the solutions. Microsomal long-term activity was examined by incubating microsomes without peptide for up to 24 h and adding L-RD2 after 8 and 24 h. The ability to degrade L-RD2 served as indicator for their activity. For the comparison of RD2 metabolite profiles across species, 150 µM RD2 was incubated in human, rat and cynomolgus liver microsomes at 37 °C for 2 and 24 h. The peptides were extracted by precipitating the proteins with trichloroacetic acid (TCA) and subsequent centrifugation, as described previously in Elfgen et al.[24]. Peptides immediately extracted from the media and precipitated media without peptides served as controls.
For the comparison of RD2 metabolite profiles across species (see 2.3), mobile phases were acetonitrile (A) and water (B) each supplemented with 0.1% TFA. The gradient ran from 0 to 100% solvent A and is described in detail in Table S1. The chromatographic RD2 metabolite profiles were screened for potential human-specific metabolites. RD2 and the major RD2 metabolite present after 24 h of incubation in human liver microsome batches 7 and 8, HSM-3, were purified by RP-HPLC. Mobile phases were acetonitrile (A) and water (B) each supplemented with 0.15% TFA. The samples were separated isocratically at 10% solvent A for 30 min. RD2 as well as HSM-3 were collected and the samples were freeze-dried subsequently. The amount of the purified HSM-3 was calculated based on a calibration curve of 10 to 100 µM RD2 extracted from human liver microsomes.

[2] = Inhibition assay: degradation of L-peptide […] with and without RD2; details: 150 µM RD2 + 150 µM L-peptide; SGF, SIF 5 min; plasma, liver microsomes 30 min
Description: To investigate whether RD2 acts as potential inhibitor for the enzymes contained in SGF, SIF, human blood plasma and human liver microsomes, an exemplary L-peptide, […], was incubated in these media with and without RD2 and the potential inhibition of the L-peptide’s degradation was monitored. This control was intended to reveal a potential resistance of RD2 to degradation due to enzyme inhibition instead of pure degradation resistance. […] For this purpose, 150 µM of the L-peptide with or without 150 µM RD2 was incubated in SGF, SIF, human plasma and liver microsomes and both peptides were extracted from the media immediately or after 5 min (SGF, SIF) or 30 min (plasma, liver microsomes) with the method mentioned under point 2.3. Time dependent compound degradation or modification was followed by RP-HPLC (see 2.8).
For analysis of the inhibition assay with enzymes contained in SGF, SIF, plasma and liver microsomes (see 2.4), RD2, […] and remaining media components were separated using the mobile phases acetonitrile (A) and water (B) each supplemented with 0.15% TFA and a gradient from 0 to 50% solvent A in 15 min.

[3] = Stability in human plasma, RP-HPLC; details: female, 37 °C
Description: as §1, §2
For sample analysis from stability tests (see 2.3), mobile phases were acetonitrile (A) and water (B) each supplemented with 0.15% trifluoroacetic acid (TFA) (v/v). The samples were measured isocratically at 10% solvent A for 30 min. This run conditions allowed us to detect smallest chemical changes including the differentiation between the original compound and a deamidated version (Fig. S1). RD2 and L-RD2 can potentially be deamidated at two sites, the C-terminus and the asparagine at position seven. Peak areas of the unmetabolized peptides after different incubation times were normalized to the peptides’ peak areas after direct extraction from the media. […] A chromatographic metabolite profile of L-RD2 in SIF was recorded with the same mobile phases but using a gradient from 0 to 30% solvent A in 30 min.

SMILES: CC(C)C[C@@H](NC(=O)[C@H](NC(=O)[C@H]1CCCN1)[C@H](C)O)C(=O)N[C@H](Cc1c[nH]cn1)C(=O)N[C@@H](C(=O)N[C@H](Cc1c[nH]cn1)C(=O)N[C@H](CC(N)=O)C(=O)N[C@H](CCCNC(=N)N)C(=O)N[C@H](CCCNC(=N)N)C(=O)N[C@H](CCCNC(=N)N)C(=O)N[C@H](CCCNC(=N)N)C(=O)N[C@H](CCCNC(=N)N)C(N)=O)[C@H](C)O [RD2, ptlhthnrrrrr] (H-[dP][dT][dL][dH][dT][dH][dN][dR][dR][dR][dR][dR]-NH2)
- metabolization of RD2 after 2 h ([1]; human samples 1–6, 150 µM, 2 h): unmetabolized
- decrease of the intensity of the RD2 peak ([1]; human samples 1–6, 24 h): 21 ± 7%
- influence of RD2 on degradation of the L-peptide KLVFFRRRRRR [2]: not influenced; also recorded: did not influence the degradation of the L-peptide in any of the media
- metabolised at 480 h, 150 µM ([3]; 150 µM, within 20 days, read-out: peptide degraded): 87 ± 3%
- half-life at 150 µM ([3]; read-out: half-life (first order kinetics fit) (converted)): 216 h
